In article PMC4619380, “Nicotinic Activity of Arecoline, the Psychoactive Element of "Betel Nuts", Suggests a Basis for Habitual Use and Anti-Inflammatory Activity” (PLoS ONE, 2015):
Entries after “also recorded” stand apart in the source; their conditions may differ. Where two headings read alike, the source gives them in different places. Marks after values point to notes of the source that are not given here.

Tests used:
[1] = set-up: method as in PMID 20412403; conditions: 90% of betel chewers, prior to chewing; cited from earlier work
[2] = test system: α4β2 nAChR (mixed populations formed from monomers); assay: Two-electrode voltage clamp of Xenopus oocytes expressing α4β2 nAChR formed from monomers; assay type: cell-based, human; conditions: 100 μM arecoline; α4 and β2 monomers
Procedure: (§1) Human nAChR clones and concatamers were obtained from Dr. J. Lindstrom (University of Pennsylvania, Philadelphia, PA). The human resistance-to-cholinesterase 3 (RIC-3) clone, obtained from Dr. M. Treinin (Hebrew University, Jerusalem, Israel), was co-injected with α7 to improve the level and speed of α7 receptor expression without affecting the pharmacological properties of the receptors. Subsequent to linearization and purification of the plasmid cDNAs, cRNAs were prepared using the mMessage mMachine in vitro RNA transfection kit (Ambion, Austin, TX). […]
(§2) Experiments were conducted using OpusXpress 6000A (Molecular Devices, Union City, CA). […] The responses of α4β2 and α3β4-expressing cells were measured as peak current amplitudes, and the α7 data were calculated as net charge, as previously described.
(§3) Data were collected at 50 Hz, filtered at 20 Hz, analyzed by Clampfit 9.2 (Molecular Devices) and Excel 2003 (Microsoft, Redmond, WA), and normalized to the averaged peak current or net-charge response of the two initial ACh controls for each oocyte. Data were expressed as means ± SEM from at least four oocytes for each experiment and plotted by Kaleidagraph 3.0.2 (Abelbeck Software, Reading, PA). Multi-cell averages were calculated for comparisons of complex responses. […]

[3] = biological target: T1, HS α4(2)β2(3) nAChR (Homo sapiens, UniProt P17787+P43681); assay: Two-electrode voltage clamp of Xenopus oocytes expressing high sensitivity α4β2 nAChR (β2-α4 concatamer plus β2 monomer); assay type: cell-based
T1 construct: host or cells: Xenopus laevis oocytes injected with cRNA
Procedure: (§4) Human nAChR clones and concatamers were obtained from Dr. J. Lindstrom (University of Pennsylvania, Philadelphia, PA). The human resistance-to-cholinesterase 3 (RIC-3) clone, obtained from Dr. M. Treinin (Hebrew University, Jerusalem, Israel), was co-injected with α7 to improve the level and speed of α7 receptor expression without affecting the pharmacological properties of the receptors. Subsequent to linearization and purification of the plasmid cDNAs, cRNAs were prepared using the mMessage mMachine in vitro RNA transfection kit (Ambion, Austin, TX).
(§5) Oocytes were surgically removed from mature Xenopus laevis frogs (Nasco, Ft. Atkinson, WI) and injected with appropriate nAChR subunit cRNAs as described previously. Frogs were maintained in the Animal Care Service facility of the University of Florida, and all procedures were approved by the University of Florida Institutional Animal Care and Use Committee. In brief, the frog was first anesthetized for 15–20 min in 1.5 L frog tank water containing 1 g of 3-aminobenzoate methanesulfonate buffered with sodium bicarbonate. […]
as §2
Data were collected at 50 Hz, filtered at 20 Hz, analyzed by Clampfit 9.2 (Molecular Devices) and Excel 2003 (Microsoft, Redmond, WA), and normalized to the averaged peak current or net-charge response of the two initial ACh controls for each oocyte. Data were expressed as means ± SEM from at least four oocytes for each experiment and plotted by Kaleidagraph 3.0.2 (Abelbeck Software, Reading, PA). Multi-cell averages were calculated for comparisons of complex responses. […] Averages of the normalized data were calculated for each of the 10,500 points in each of the 210 s traces (acquired at 50 Hz), as well as the standard errors for those averages. […]

[4] = biological target: T2, α6β2β3α4β2 concatamer nAChR (Homo sapiens, UniProt P17787+P43681+Q15825); assay: Two-electrode voltage clamp of Xenopus oocytes expressing the α6-containing concatamer; assay type: cell-based
Procedure: as §4, §5, §2
Data were collected at 50 Hz, filtered at 20 Hz, analyzed by Clampfit 9.2 (Molecular Devices) and Excel 2003 (Microsoft, Redmond, WA), and normalized to the averaged peak current or net-charge response of the two initial ACh controls for each oocyte. Data were expressed as means ± SEM from at least four oocytes for each experiment and plotted by Kaleidagraph 3.0.2 (Abelbeck Software, Reading, PA). Multi-cell averages were calculated for comparisons of complex responses. […] Averages of the normalized data were calculated for each of the 10,500 points in each of the 210 s traces (acquired at 50 Hz), as well as the standard errors for those averages.

[5] = biological target: T3, human α7 nAChR (Homo sapiens, UniProt P36544); assay: Two-electrode voltage clamp of Xenopus oocytes expressing α7 nAChR (co-injected with RIC-3); assay type: cell-based; conditions: for EC50: normalized to 60 μM ACh controls; for activation of α7 when applied alone (absence of PAM): no PNU-120596, compared to 60 μM ACh controls; for activation of α7 in the presence of PNU-120596: co-applied with 10 μM PNU-120596
T3 construct: host or cells: Xenopus laevis oocytes injected with cRNA
Procedure: as §4
Oocytes were surgically removed from mature Xenopus laevis frogs (Nasco, Ft. Atkinson, WI) and injected with appropriate nAChR subunit cRNAs as described previously. Frogs were maintained in the Animal Care Service facility of the University of Florida, and all procedures were approved by the University of Florida Institutional Animal Care and Use Committee. In brief, the frog was first anesthetized for 15–20 min in 1.5 L frog tank water containing 1 g of 3-aminobenzoate methanesulfonate buffered with sodium bicarbonate. The harvested oocytes were treated with 1.25 mg/ml collagenase (Worthington Biochemicals, Freehold, NJ) for 2 h at room temperature in calcium-free Barth’s solution (88 mM NaCl, 1 mM KCl, 2.38 mM NaHCO3, 0.82 mM MgSO4, 15 mM HEPES, and 12 mg/l tetracycline, pH 7.6) to remove the follicular layer. Stage V oocytes were subsequently isolated and injected with 50 nl of 5–20 ng nAChR subunit cRNA. Recordings were carried out 1–7 days after injection.
Experiments were conducted using OpusXpress 6000A (Molecular Devices, Union City, CA). Both the voltage and current electrodes were filled with 3 M KCl. Oocytes were voltage-clamped at -60 mV. The oocytes were bath-perfused with Ringer’s solution (115 mM NaCl, 2.5 mM KCl, 1.8 mM CaCl2, 10 mM HEPES, and 1 μM atropine, pH 7.2) at 2 ml/min for α7 receptors and at 4 ml/min for other subtypes. To evaluate the effects of experimental compounds compared to ACh-evoked responses of various nAChR subtypes expressed in oocytes, baseline conditions were defined by two initial applications of ACh made before test applications. The solutions were applied from a 96-well plate via disposable tips, and the test compounds were applied alone, co-applied with ACh, or co-applied with PNU-120596. For the concentration-response study, drug applications alternated between ACh controls and experimental compounds. Unless otherwise indicated, drug applications were 12 s in duration followed by a 181 s washout period for α7 receptors and 6 s with a 241 s washout for other subtypes. A typical recording for each oocyte constituted two initial control applications of ACh, an experimental compound application, and then a follow-up control application of ACh to determine the desensitization or rundown of the receptors. The control ACh concentrations were 60 μM for α7, 100 μM for α3β4, and 30 μM for α4β2. The responses of α4β2 and α3β4-expressing cells were measured as peak current amplitudes, and the α7 data were calculated as net charge, as previously described.
Data were collected at 50 Hz, filtered at 20 Hz, analyzed by Clampfit 9.2 (Molecular Devices) and Excel 2003 (Microsoft, Redmond, WA), and normalized to the averaged peak current or net-charge response of the two initial ACh controls for each oocyte. Data were expressed as means ± SEM from at least four oocytes for each experiment and plotted by Kaleidagraph 3.0.2 (Abelbeck Software, Reading, PA). Multi-cell averages were calculated for comparisons of complex responses. To permit better comparisons between experiments each single cell response was normalized to the average of the two initial controls obtained from that cell. Averages of the normalized data were calculated for each of the 10,500 points in each of the 210 s traces (acquired at 50 Hz), as well as the standard errors for those averages.

[6] = biological target: T4, LS α4(3)β2(2) nAChR (Homo sapiens, UniProt P17787+P43681); assay: Two-electrode voltage clamp of Xenopus oocytes expressing low sensitivity α4β2 nAChR (β2-α4 concatamer plus α4 monomer); assay type: cell-based
T4 construct: host or cells: Xenopus laevis oocytes injected with cRNA
Procedure: as §1, §2, §3

[7] = biological target: T1, HS α4(2)β2(3) nAChR; conditions: cited from earlier work
[8] = biological target: T4, LS α4(3)β2(2) nAChR; conditions: cited from earlier work
[9] = biological target: T2, α6β2β3α4β2 concatamer nAChR; set-up: method as in PMID 20923852; conditions: cited from earlier work
[10] = 100 μM arecoline co-applied with 10 μM PNU-120596, 60 μM ACh controls, n = 7
[11] = co-applied with 30 μM PNU-120596, relative to 60 μM ACh controls

T3 sequence (P36544 23-502): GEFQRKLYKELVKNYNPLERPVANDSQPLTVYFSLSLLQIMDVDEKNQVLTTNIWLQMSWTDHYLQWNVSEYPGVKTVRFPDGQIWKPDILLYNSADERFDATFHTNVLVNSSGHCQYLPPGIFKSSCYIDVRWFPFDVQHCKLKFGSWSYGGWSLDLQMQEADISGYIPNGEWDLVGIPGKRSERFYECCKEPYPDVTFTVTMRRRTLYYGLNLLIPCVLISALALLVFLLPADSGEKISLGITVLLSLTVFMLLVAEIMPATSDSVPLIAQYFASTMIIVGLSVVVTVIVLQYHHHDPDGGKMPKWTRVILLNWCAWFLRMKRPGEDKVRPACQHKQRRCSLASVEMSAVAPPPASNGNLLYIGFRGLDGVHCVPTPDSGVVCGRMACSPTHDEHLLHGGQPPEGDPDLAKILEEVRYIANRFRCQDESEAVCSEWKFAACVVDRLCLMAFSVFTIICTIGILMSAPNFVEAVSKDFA
T2 sequence (Q15825 26-494): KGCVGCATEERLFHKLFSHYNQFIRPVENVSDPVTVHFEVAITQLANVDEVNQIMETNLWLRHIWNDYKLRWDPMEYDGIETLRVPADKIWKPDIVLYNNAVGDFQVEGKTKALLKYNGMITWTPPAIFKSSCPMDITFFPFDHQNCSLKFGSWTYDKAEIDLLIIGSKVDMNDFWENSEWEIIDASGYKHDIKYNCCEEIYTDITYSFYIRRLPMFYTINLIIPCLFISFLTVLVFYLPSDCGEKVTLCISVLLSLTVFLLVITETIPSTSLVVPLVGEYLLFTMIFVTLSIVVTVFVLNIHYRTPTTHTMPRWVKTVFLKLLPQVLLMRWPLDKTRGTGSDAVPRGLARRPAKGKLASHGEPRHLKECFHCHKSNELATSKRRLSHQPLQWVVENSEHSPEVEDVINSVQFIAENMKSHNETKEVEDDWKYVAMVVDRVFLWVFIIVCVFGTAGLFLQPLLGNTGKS
T2 sequence (P17787 26-502): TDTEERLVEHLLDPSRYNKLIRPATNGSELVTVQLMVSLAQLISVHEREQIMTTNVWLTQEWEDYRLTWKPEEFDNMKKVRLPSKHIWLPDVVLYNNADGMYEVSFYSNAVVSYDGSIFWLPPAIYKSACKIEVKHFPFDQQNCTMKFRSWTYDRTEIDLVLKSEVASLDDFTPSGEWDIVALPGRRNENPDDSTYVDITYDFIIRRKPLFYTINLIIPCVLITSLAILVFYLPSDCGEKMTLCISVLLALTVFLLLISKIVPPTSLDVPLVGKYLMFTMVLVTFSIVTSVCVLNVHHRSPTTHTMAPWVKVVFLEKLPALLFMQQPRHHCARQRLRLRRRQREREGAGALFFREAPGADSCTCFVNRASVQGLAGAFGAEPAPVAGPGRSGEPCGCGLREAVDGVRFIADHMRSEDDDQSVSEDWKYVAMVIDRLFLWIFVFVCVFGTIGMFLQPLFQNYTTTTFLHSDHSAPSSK
T2 sequence (P43681 27-627): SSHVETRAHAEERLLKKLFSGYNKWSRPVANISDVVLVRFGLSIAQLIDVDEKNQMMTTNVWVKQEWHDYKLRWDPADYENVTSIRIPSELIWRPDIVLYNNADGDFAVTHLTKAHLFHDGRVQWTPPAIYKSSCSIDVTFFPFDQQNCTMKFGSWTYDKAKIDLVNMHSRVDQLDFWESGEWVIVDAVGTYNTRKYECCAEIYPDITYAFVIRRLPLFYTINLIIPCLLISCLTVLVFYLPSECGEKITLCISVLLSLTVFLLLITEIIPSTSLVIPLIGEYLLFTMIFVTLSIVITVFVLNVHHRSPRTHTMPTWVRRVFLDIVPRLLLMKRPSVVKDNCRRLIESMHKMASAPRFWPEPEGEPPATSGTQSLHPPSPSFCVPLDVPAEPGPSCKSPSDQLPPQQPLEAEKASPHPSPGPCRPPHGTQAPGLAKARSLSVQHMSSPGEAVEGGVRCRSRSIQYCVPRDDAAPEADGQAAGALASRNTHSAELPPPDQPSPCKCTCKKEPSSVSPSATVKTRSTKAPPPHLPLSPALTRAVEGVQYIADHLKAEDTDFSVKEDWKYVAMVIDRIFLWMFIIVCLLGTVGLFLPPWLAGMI
T2 sequence (Q05901 22-458 partner): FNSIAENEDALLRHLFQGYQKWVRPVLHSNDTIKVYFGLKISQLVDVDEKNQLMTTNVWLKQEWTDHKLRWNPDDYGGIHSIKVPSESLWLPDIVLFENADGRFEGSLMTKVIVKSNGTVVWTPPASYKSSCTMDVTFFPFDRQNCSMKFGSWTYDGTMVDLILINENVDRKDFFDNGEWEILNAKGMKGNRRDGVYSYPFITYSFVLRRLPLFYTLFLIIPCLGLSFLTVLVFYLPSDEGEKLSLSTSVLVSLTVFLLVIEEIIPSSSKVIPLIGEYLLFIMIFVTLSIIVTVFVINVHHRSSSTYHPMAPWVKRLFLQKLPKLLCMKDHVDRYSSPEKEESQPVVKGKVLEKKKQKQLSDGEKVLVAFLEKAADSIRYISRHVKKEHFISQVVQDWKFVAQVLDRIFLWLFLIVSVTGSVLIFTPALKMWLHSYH
T4 sequence (P17787+P43681 fused): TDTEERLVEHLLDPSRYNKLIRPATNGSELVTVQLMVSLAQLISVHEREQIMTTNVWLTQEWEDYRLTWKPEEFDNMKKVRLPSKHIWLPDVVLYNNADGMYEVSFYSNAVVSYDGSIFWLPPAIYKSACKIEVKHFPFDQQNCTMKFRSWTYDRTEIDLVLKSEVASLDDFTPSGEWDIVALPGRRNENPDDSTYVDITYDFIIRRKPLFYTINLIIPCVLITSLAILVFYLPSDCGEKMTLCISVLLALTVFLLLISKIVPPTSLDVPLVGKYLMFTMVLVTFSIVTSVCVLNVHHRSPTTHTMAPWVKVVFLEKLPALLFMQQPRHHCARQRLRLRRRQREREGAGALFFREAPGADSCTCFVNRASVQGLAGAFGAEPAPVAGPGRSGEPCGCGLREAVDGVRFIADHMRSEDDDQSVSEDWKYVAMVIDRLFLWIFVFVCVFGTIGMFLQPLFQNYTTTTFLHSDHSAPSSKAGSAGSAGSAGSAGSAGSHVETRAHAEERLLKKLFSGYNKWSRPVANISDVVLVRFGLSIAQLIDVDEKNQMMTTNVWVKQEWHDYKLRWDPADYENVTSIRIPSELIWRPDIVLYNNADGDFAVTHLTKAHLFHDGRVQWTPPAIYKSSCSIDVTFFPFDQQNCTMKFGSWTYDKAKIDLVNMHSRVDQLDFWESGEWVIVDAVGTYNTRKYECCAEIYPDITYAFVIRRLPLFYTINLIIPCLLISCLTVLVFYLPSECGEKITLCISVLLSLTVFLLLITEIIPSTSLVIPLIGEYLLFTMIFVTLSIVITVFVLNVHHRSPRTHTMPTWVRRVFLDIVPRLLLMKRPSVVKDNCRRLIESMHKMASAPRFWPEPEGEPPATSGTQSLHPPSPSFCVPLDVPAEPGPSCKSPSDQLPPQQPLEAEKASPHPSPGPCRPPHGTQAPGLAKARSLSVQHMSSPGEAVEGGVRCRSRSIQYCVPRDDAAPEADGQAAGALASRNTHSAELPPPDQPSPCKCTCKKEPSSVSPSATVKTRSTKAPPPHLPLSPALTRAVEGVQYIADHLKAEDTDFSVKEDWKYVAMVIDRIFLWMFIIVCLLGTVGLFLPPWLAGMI
T4 sequence (P43681 27-627): as the sequence (P43681 27-627) above
T1 sequence (P17787+P43681 fused): as the sequence (P17787+P43681 fused) above
T1 sequence (P17787 26-502): as the sequence (P17787 26-502) above

In the case of `COC(=O)C1=CCCN(C)C1` [arecoline], the “residual salivary level of arecoline” value [1] is listed as “at least 400 nM”, the “response to arecoline (activation)” value [2] is listed as “small but significant activity; also recorded: substantially larger and well above the threshold of detection” and the EC50 ([3]; HS α4β2, responses relative to ACh maximum) is listed as 14 ± 3 µM. The “mecamylamine-sensitive steady-state activation relative to ACh maximum” value ([3]; prolonged bath application of 3 μM arecoline, revealed with 100 μM mecamylamine, seven cells) was roughly 1%, the “Imax relative to ACh” value ([3]; α4(2)β2(3)) was 0.054 ± 0.004 and the “response to arecoline (activation)” value ([4]; 100 μM arecoline) was “small but significant activity; also recorded: substantially larger and well above the threshold of detection”. For the same compound, the EC50 ([4]; α6-containing receptor, responses relative to ACh maximum) was 21 ± 4 µM, the “Imax relative to ACh” value ([4]; α6β2β3α4β2) was 0.056 ± 0.003 and the “effect on subsequent ACh-evoked responses” value ([5]; 60 μM ACh applied after the test application and wash) was “largely unaffected”. The “response relative to ACh maximum” value ([5]; 100 μM arecoline applied alone, extrapolated from ACh controls and earlier ACh concentration-response studies) was “less than 1%”, the “net charge of response relative to ACh controls” value [5, 10] was 37 ± 10 times and the “peak amplitude of response relative to ACh controls” value [5, 10] was 9.6 ± 3.4 times. The EC50 ([5]; co-applied with 30 μM PNU-120596, read-out: EC50, net charge) was 93 ± 2 µM, the EC50 ([5]; co-applied with 30 μM PNU-120596, read-out: EC50, peak currents) was 60 ± 7 µM and the “Imax relative to ACh controls, net charge” value [5, 11] was 49 ± 1. For the same compound, the “Imax relative to ACh controls, peak currents” value [5, 11] was 15 ± 1, the “activation of α7 when applied alone (absence of PAM)” value (“activation of α7 when applied alone” below) [5] was “did not produce significant activation” and the IC50 ([5]; simple co-application with 60 μM ACh, no PAM, read-out: IC50 for inhibiting 60 μM ACh-evoked responses) was greater than 1000 µM. The EC50 ([6]; LS α4β2, responses relative to ACh maximum) was 75 ± 7 µM and the “Imax relative to ACh” value ([6]; α4(3)β2(2)) was 0.036 ± 0.003.
In the case of `CC(=O)OC(C)C[N+](C)(C)C` (stereo not shown) [methacholine, reference compound], the “activation of α7 in the presence of PNU-120596” value (“activation of α7 … of PNU-120596” for short) [5] is reported as “not as active as arecoline” and the “activation of α7 when applied alone” value [5] is reported as “silent agonist”.
For `O=C1CCCN1CC#CCN1CCCC1` [oxotremorine, reference compound], the “activation of α7 … of PNU-120596” value [5] was “relatively little additional activation” and the “activation of α7 when applied alone” value [5] was “small but significant activation”.
For `c1cnc2cc3c(cc2n1)[C@@H]1CNC[C@H]3C1` [varenicline], the “Imax relative to ACh” value [7] is listed as 0.13 ^b, the “Imax relative to ACh” value [8] is listed as 0.08 ^b and the “Imax relative to ACh” value [9] is listed as 0.18 ± 0.11 ^c.
For `C[N+](C)(C)CCOC(N)=O` [carbachol, reference compound], the “activation of α7 … of PNU-120596” value [5] was “stimulated α7 receptors under both conditions” and the “activation of α7 when applied alone” value [5] was “stimulated α7 receptors under both conditions”.
In the case of `O=c1cccc2n1C[C@@H]1CNC[C@H]2C1` [cytisine], the “Imax relative to ACh” value [7] is listed as ≤ 0.05 ^a, the “Imax relative to ACh” value [8] is listed as 0.10 ± 0.02 ^a and the “Imax relative to ACh” value [9] is listed as 0.11 ± 0.03 ^c.
With `C[C@@H]1O[C@H](C[N+](C)(C)C)C[C@H]1O` [muscarine, reference compound] the “activation of α7 … of PNU-120596” value [5] was “failed to activate the receptors under either condition” and the “activation of α7 when applied alone” value [5] was “failed to activate the receptors under either condition”.
